Assay results from patent US20160067311A1, “USE OF ELSIGLUTIDE TO TREAT GASTROINTESTINAL MUCOSITIS INCLUDING CHEMOTHERAPY-INDUCED DIARRHEA” (Helsinn Healthcare SA, priority 2014, published 2016).
“Also recorded” adds a separate entry of the source. Like-named read-outs stand apart in the source and are kept apart here. Peptide text beside a SMILES is read from it.

Assays:
[1] = Clinical pharmacokinetics of elsiglutide and its metabolites (studies 06-013, TIDE-09-04, TIDE-11-10); details: for dose dependence of pharmacokinetics (Cmax and AUC increases proportional to dose): study TIDE-09-04, s.c. on 4 consecutive days
Description: Data on human exposure to elsiglutide generated so far originate from three clinical trials, one performed in healthy subjects (study 06-013) and two in cancer patients (TIDE-09-04, TIDE-11-10). The main objective of the first two studies was the evaluation of the safety, tolerability and maximum tolerated dose (MTD) of ascending elsiglutide doses administered as s.c. (both studies) and i.v. (only study 06-013) bolus injections. In study 06-013 elsiglutide was administered as single i.v. or s.c. bolus, while in study TIDE-09-04 each dose was administered as s.c. bolus on 4 consecutive days. Study TIDE-11-10 was a phase II proof of concept study that mainly evaluated the efficacy of elsiglutide administered as 24 mg daily s.c. bolus injections for 4 consecutive days in preventing CID in patients with colorectal cancer receiving 5-FU based chemotherapy (FOLFOX4 or FOLFIRI regimen). The secondary objectives of all three studies included the evaluation of the pharmacokinetics of elsiglutide and its major metabolites in humans.

[2] = tested on: cancer patients receiving 5-FU-based chemotherapy; experiment: Study TIDE-09-04 dose-escalation, safety and tolerability, s.c. bolus on 4 consecutive days in cancer patients; type: in vivo, human
Source text: (§1) Safety data in humans are derived from two phase I dose-escalation studies and one phase II study, which included 202 human subjects (36 healthy subjects and 166 colon and colorectal cancer patients receiving 5-FU-based chemotherapy), 117 of whom received active treatment.
In the second dose-escalation study (TIDE-09-04) in cancer patients an independent data safety monitoring board supervised the dose escalation process.
(§2) In study TIDE-09-04, out of the 28 treated patients (21 on active treatment and 7 on placebo), 9 (32.1%; 7 patients in elsiglutide group and 2 patients in placebo group) experienced at least one TEAE judged by the investigator to be at least possibly related to treatment. In study TIDE-11-10, out of the 138 treated patients (69 on elsiglutide and 69 on placebo), 8 (11.6%), all in the elsiglutide group, had at least one TEAE judged by the investigator to be at least possibly related to study-drug. The most frequent related TEAEs overall in both studies were injection site events (in particular injection site erythema and injection site pain) followed by constipation.

[3] = tested on: healthy subjects and colon and colorectal cancer patients; experiment: Human safety data across the clinical studies (06-013, TIDE-09-04, TIDE-11-10); type: in vivo
Source text: as §1
(§3) In studies TIDE-09-04 and TIDE-11-10 the overall pattern of TEAEs was as expected for patients with cancer receiving chemotherapy. In both studies the safety profiles of elsiglutide and placebo were generally similar. More patients in the elsiglutide group reported TEAEs compared to patients in the placebo group, mostly due to injection site reactions in the elsiglutide group.

citrulline = experiment: Study TIDE-11-10 mean blood concentrations of citrulline (biomarker for intestinal integrity); type: in vivo, human
Description: (§4) The formulation used in clinical trials is a lyophilized sterile powder for s.c. administration after reconstitution with sterile water for injection. […] This study also included an evaluation of the levels of citrulline, an amino acid mainly produced by enterocytes, a decrease of which is indicative of an intestinal mucosal damage following chemotherapy. […] In addition, safety and tolerability of the administered repeated doses of elsiglutide were evaluated, and the pharmacokinetics (PK) of elsiglutide and its metabolites ZP2242 and ZP2712 were investigated in a subset of patients in each treatment arm.
(§5) In addition, the proportion of patients who were limited concerning self-care Activities of Daily Living (ADL), the number of stools per day, the number of bowel movements accompanied by urgency per day, and the number of episodes of fecal incontinence per day were summarized for Day 1 to Day 14. Mean blood concentrations of citrulline (a biomarker for intestinal integrity, a decrease being indicative of an intestinal mucosal damage following chemotherapy) were summarized by treatment group for baseline, Day 5, and Day 15 including changes compared to baseline.

[4] = tested on: patients with colorectal cancer receiving 5-FU based chemotherapy (FOLFOX4 or FOLFIRI regimen); experiment: Study TIDE-11-10 safety (treatment-emergent adverse events); type: in vivo, human; details: elsiglutide group, 69 patients, 24 mg/day s.c. for 4 days
Source text: as §3, §2
138 patients received a daily dose of 24 mg elsiglutide (or placebo practically identical in composition to the active study drug) via a single s.c. injection for 4 consecutive days, starting from the first day of chemotherapy administration. […] Safety and tolerability were monitored throughout the study.

rats [5] = experiment: Preclinical 5-Fluorouracil (5-FU)-induced small intestinal atrophy and diarrhea in rats; details: 400 nmol/kg
healthy volunteers = experiment: Study 06-013 dose-escalation, safety, tolerability and MTD, single i.v. or s.c. bolus in healthy subjects; type: in vivo, human
Source text: Thirteen of 27 subjects included in this study experienced at least 1 treatment-emergent adverse event (TEAE) judged by the investigator as having either a possible, probable or definitive relation to the study medication. The most commonly reported related TEAEs being postural dizziness, nausea, and injection site erythema.

rats [6] = experiment: Preclinical irinotecan-induced diarrhea and intestinal damage in rats
[7] = tested on: patients with colorectal cancer receiving 5-FU based chemotherapy (FOLFOX4 or FOLFIRI regimen); experiment: Study TIDE-11-10 phase II proof of concept, prevention of chemotherapy induced diarrhea (CID); type: in vivo, human
Description: as §4
Methodology: This was a phase II, multicenter, double-blind, randomized, placebo-controlled, two-stage, proof of concept study with an interim futility analysis in colorectal cancer patients receiving 5-FU-based chemotherapy (FOLFOX4 or FOLFIRI) and administered elsiglutide subcutaneously (s.c.) for 4 consecutive days.
138 patients received a daily dose of 24 mg elsiglutide (or placebo practically identical in composition to the active study drug) via a single s.c. injection for 4 consecutive days, starting from the first day of chemotherapy administration. The patients were hospitalized at least until Day 3. Further visits were scheduled for Days 4, 5 and 15 and for a Follow-up Visit on Day 28-32. Safety and tolerability were monitored throughout the study.
Diagnosis and Main Criteria for Inclusion: Female and male patients of at least 18 years of age with confirmed diagnosis of colorectal cancer and an Eastern Cooperative Oncology
Group (ECOG) performance status ≦2, chemotherapy-naïve, and scheduled to receive a FOLFOX4 or FOLFIRI chemotherapy regimen.
Efficacy: The endpoint of primary interest was: • Number of patients experiencing no diarrhea from Day 1 to Day 14
Secondary endpoints were: • Proportion of patients experiencing grades ≧2 diarrhea at each day from Day 1 to Day 14 according to National Cancer Institute Common Terminology Criteria for Adverse Events (NCI-CTCAE v. 4.03); • Worst grade of diarrhea according to NCI-CTCAE at each day from Day 1 to Day 14; • Time to occurrence of diarrhea, defined as the first day in which a grade ≧1 diarrhea was assessed (from Day 1 to day 14); • Number of days with presence of grade ≧1 diarrhea (from Day 1 to Day 14); • Number of days with presence of grade ≧2 diarrhea (from Day 1 to Day 14); • Number of days with presence of at least one bowel movement accompanied by urgency (from Day 1 to 14); • Number of days with presence of at least one episode of fecal incontinence (from Day 1 to 14); • Proportion of patients who required i.v. fluids due to CID (from Day 1 to 14); • Proportion of patients who required changes to the primary therapy (chemotherapy dose reduction, delay or change to regimen) due to CID as of Day 2, Day 14 and as of Day 28; • Proportion of patients who used rescue medication (i.e. medication used for treatment of diarrhea) from Day 1 to Day 14.
as §5

[8] = GLP-2(1-33); DPP IV degradation and renal clearance; cited from earlier work
[9] = Day 1 to Day 14, Full Analysis Set, 24 mg/day, N = 69
[10] = Day 1 to Day 14, Intent-to-treat Set, 24 mg/day, N = 69

CC[C@H](C)[C@H](NC(=O)[C@H](CC(C)C)NC(=O)[C@H](Cc1c[nH]c2ccccc12)NC(=O)[C@H](C)NC(=O)[C@@H](NC(=O)[C@H](Cc1ccccc1)NC(=O)[C@H](CC(=O)O)NC(=O)[C@H](CCCNC(=N)N)NC(=O)[C@H](C)NC(=O)[C@H](C)NC(=O)[C@H](CC(C)C)NC(=O)[C@H](C)NC(=O)[C@H](CC(=O)O)NC(=O)[C@H](CC(C)C)NC(=O)[C@@H](NC(=O)[C@@H](NC(=O)[C@H](CO)NC(=O)[C@H](CC(C)C)NC(=O)[C@H](CCC(=O)O)NC(=O)[C@H](CO)NC(=O)[C@H](CO)NC(=O)[C@H](Cc1ccccc1)NC(=O)[C@H](CO)NC(=O)CNC(=O)[C@H](CCC(=O)O)NC(=O)CNC(=O)[C@@H](N)Cc1c[nH]cn1)[C@@H](C)O)[C@@H](C)CC)[C@@H](C)CC)C(=O)N[C@@H](C)C(=O)N[C@H](C(=O)N[C@@H](CCCCN)C(=O)N[C@H](C(=O)N[C@H](C(=O)N[C@@H](CC(=O)O)C(=O)N[C@@H](CCCCN)C(=O)N[C@@H](CCCCN)C(=O)O)[C@@H](C)O)[C@@H](C)CC)[C@@H](C)O [ZP2712] (H-HGEGSFSSELSTILDALAARDFIAWLIATKITDKK-OH; N-terminus assumed)
exposure to metabolite relative to exposure to the parent ZP1846 (elsiglutide) ([1]; Day 1): > 4 fold
half-life ([1]; human, plasma): 6 to 9 h
dose dependence of pharmacokinetics (Cmax and AUC increases proportional to dose) [1]: dose independent

CC[C@H](C)[C@H](NC(=O)[C@H](CC(C)C)NC(=O)[C@H](Cc1c[nH]c2ccccc12)NC(=O)[C@H](C)NC(=O)[C@@H](NC(=O)[C@H](Cc1ccccc1)NC(=O)[C@H](CC(=O)O)NC(=O)[C@H](CCCNC(=N)N)NC(=O)[C@H](C)NC(=O)[C@H](C)NC(=O)[C@H](CC(C)C)NC(=O)[C@H](C)NC(=O)[C@H](CC(=O)O)NC(=O)[C@H](CC(C)C)NC(=O)[C@@H](NC(=O)[C@@H](NC(=O)[C@H](CO)NC(=O)[C@H](CC(C)C)NC(=O)[C@H](CCC(=O)O)NC(=O)[C@H](CO)NC(=O)[C@H](CO)NC(=O)[C@H](Cc1ccccc1)NC(=O)[C@H](CO)NC(=O)CNC(=O)[C@H](CCC(=O)O)NC(=O)CNC(=O)[C@@H](N)Cc1c[nH]cn1)[C@@H](C)O)[C@@H](C)CC)[C@@H](C)CC)C(=O)N[C@@H](C)C(=O)N[C@H](C(=O)N[C@@H](CCCCN)C(=O)N[C@H](C(=O)N[C@H](C(=O)N[C@@H](CC(=O)O)C(=O)N[C@@H](CCCCN)C(=O)N[C@@H](CCCCN)C(=O)N[C@@H](CCCCN)C(=O)N[C@@H](CCCCN)C(=O)N[C@@H](CCCCN)C(=O)N[C@@H](CCCCN)C(N)=O)[C@@H](C)O)[C@@H](C)CC)[C@@H](C)O [elsiglutide] (H-HGEGSFSSELSTILDALAARDFIAWLIATKITDKKKKKK-NH2; N-terminus assumed)
dose limiting toxicities ([2]; 93 mg/day administered for 4 consecutive days): no dose limiting toxicity; also recorded: no dose limiting toxicities
patients with at least one TEAE at least possibly related to treatment ([2]; elsiglutide group, 21 on active treatment, TIDE-09-04): 7 patients
deaths or SAEs related to the study drug ([3]; all three studies): No deaths or SAEs related to the study drug
serious or severe injection site reactions ([3]; studies TIDE-09-04 and TIDE-11-10): No serious or severe injection site reactions
change of mean citrulline level between Baseline and Day 5, compared with placebo group (citrulline; Baseline to Day 5): less pronounced decrease
Mean citrulline level at Day 15 (citrulline; Day 15, elsiglutide group, 24 mg/day on days 1-4): 36.5 µmol/L
Mean citrulline level at baseline (citrulline; baseline, elsiglutide group): 33.5 µmol/L
half-life ([1]; human, plasma, iv): 0.4 h
bioavailability ([1]; human, plasma, subcutaneous): 0.29
dose dependence of pharmacokinetics (Cmax and AUC increases proportional to dose) [1]: dose independent
patients with at least one TEAE at least possibly related to study-drug (number) [4]: 8 patients
patients with at least one TEAE at least possibly related to study-drug (percentage) [4]: 11.6%
5-Fluorouracil (5-FU)-induced small intestinal atrophy and diarrhea (rats [5]): prevents
body weight loss (5-FU model) (rats [5]): attenuates
mortality (5-FU model) (rats [5]): decreases
subjects with at least 1 TEAE with possible, probable or definitive relation to study medication (healthy volunteers; of 27 subjects, study 06-013): Thirteen
maximum tolerated dose (MTD) i.v. (healthy volunteers; single i.v. bolus, healthy volunteers, stopping-rule AE at 19.2 mg i.v.): 9.6 mg
maximum tolerated dose (MTD) s.c. (healthy volunteers; single s.c. bolus, healthy volunteers, stopping-rule AE at 6 mg s.c.): 3 mg
body weight loss and lethality (irinotecan model) (rats [6]): decreases
irinotecan induced severe intestinal damage (histopathological observations) (rats [6]): drastically reduces
severity of irinotecan-induced diarrhea, including late-onset diarrhea (rats [6]): decreases
effect on the occurrence of grade ≧2 diarrhea ([7]; 24 mg daily s.c. for 4 consecutive days): preventive effect
evidence of efficacy ([7]; 24 mg/day s.c. on 4 consecutive days): some evidence of efficacy
Worst grade of diarrhea NCI-CTCAE v4.03: Grade 0, % [7, 9]: (62.3) %
Worst grade of diarrhea NCI-CTCAE v4.03: Grade 1, % [7, 9]: (30.4) %
Worst grade of diarrhea NCI-CTCAE v4.03: Grade 2, % [7, 9]: (5.8) %
Worst grade of diarrhea NCI-CTCAE v4.03: Grade 3, % [7, 9]: (1.4) %
Worst grade of diarrhea NCI-CTCAE v4.03: Grade <2, % [7, 9]: (92.8) %
Worst grade of diarrhea NCI-CTCAE v4.03: Grade ≧2, % [7, 9]: (7.2) %
Non-responders, % [7, 10]: (37.7) %
Responders (patients experiencing no diarrhea), % [7, 10]: (62.3) %
superiority of elsiglutide over placebo in number of responders ([7]; overall trial, Stage 1 and Stage 2, 69 patients per group): could not be statistically demonstrated

HADGSFSDEMNTILDNLAARDFINWLIQTKITD [GLP-2]
half-life [8]: about 7 minutes
